# Assay results reported in publication PMC7827406, “Structure–Activity Relationship (SAR) Study of Spautin-1 to Entail the Discovery of Novel NEK4 Inhibitors” (International Journal of Molecular Sciences, 2021).
# Like-named read-outs stand apart in the source and are kept apart here.
# Legend:
# Assay in all cases: biochemical
# Parameters in all cases: Eurofins KinaseProfiler full panel at Km ATP, residual kinase activity (%) relative to DMSO
# DYRK3(h) = biological target: T1, DYRK3(h) (Homo sapiens, UniProt O43781)
# T1 sequence (O43781 1-588): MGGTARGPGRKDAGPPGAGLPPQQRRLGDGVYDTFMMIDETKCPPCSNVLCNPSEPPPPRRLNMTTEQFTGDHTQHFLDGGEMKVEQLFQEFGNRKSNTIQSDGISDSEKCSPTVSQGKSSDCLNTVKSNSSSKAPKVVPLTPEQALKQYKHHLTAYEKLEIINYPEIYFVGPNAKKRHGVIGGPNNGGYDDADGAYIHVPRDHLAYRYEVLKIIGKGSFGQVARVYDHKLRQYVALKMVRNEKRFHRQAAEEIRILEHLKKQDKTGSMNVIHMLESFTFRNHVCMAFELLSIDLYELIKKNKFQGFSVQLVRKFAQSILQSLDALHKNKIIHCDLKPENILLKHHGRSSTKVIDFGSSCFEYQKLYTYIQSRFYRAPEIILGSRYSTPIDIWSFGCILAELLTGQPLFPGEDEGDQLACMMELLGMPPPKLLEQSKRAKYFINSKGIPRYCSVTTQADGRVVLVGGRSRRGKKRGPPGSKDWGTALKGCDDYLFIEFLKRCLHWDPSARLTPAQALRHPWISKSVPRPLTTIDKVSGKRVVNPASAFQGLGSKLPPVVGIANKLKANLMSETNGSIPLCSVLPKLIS
# Method in brief: (§1)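 Two 10 µM single-concentration screens were run: a competition-binding screen, in which DNA-tagged kinase bound to immobilized ligands was quantified by qPCR, and a radiometric activity panel at Km ATP. Each is expressed as residual kinase activity (%).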
# Aurora-C(h) = biological target: T2, Aurora-C(h) (Homo sapiens, UniProt Q9UQB9)
# T2 construct: gene AURKC
# T2 sequence (Q9UQB9 1-309): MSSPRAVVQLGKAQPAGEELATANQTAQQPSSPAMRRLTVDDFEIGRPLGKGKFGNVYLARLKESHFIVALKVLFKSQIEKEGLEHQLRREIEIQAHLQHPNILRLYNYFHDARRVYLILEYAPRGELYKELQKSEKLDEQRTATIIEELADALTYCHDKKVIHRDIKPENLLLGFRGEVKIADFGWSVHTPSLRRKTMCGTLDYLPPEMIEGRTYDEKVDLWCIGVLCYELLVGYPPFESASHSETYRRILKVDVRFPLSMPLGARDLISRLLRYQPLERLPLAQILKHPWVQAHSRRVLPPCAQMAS
# Method in brief: as §1
# PRK2(h) = biological target: T3, PRK2(h) (Homo sapiens, UniProt Q16513)
# T3 construct: gene PKN2
# T3 sequence (Q16513 whole entry): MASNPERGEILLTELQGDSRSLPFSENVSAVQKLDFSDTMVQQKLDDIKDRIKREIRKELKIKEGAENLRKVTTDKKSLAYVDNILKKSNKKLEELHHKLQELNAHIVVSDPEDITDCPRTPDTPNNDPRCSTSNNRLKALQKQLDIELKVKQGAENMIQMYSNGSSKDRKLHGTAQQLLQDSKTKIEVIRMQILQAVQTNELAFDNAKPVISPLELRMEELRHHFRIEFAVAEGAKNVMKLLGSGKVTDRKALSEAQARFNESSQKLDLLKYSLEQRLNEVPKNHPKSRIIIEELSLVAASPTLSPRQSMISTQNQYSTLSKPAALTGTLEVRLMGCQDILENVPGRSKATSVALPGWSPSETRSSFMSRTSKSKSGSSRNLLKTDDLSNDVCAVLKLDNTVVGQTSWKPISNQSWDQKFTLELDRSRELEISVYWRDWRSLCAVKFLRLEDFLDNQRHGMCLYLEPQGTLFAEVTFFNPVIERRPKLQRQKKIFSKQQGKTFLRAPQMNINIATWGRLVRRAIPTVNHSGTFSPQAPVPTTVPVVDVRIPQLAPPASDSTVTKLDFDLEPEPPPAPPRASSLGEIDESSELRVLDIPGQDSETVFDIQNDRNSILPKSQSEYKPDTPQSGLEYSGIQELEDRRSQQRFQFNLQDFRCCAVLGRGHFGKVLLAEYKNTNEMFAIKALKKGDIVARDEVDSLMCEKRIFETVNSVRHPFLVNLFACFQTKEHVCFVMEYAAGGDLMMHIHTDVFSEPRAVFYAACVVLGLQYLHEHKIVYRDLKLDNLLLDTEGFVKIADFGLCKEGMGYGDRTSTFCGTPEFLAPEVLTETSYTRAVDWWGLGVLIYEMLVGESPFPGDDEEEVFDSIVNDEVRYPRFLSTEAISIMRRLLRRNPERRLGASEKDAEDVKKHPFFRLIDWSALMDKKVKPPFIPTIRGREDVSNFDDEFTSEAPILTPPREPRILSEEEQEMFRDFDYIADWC
# Method in brief: as §1
# CDK14/cyclinY(h) = CDK14/cyclinY(h) (Homo sapiens, UniProt O94921)
# Method in brief: as §1
# [1] = biological target: T4, PI3 Kinase (p110b/p85b)(m) (Mus musculus, UniProt Q8BTI9)
# T4 construct: gene Pik3cb
# T4 sequence (Q8BTI9 whole entry): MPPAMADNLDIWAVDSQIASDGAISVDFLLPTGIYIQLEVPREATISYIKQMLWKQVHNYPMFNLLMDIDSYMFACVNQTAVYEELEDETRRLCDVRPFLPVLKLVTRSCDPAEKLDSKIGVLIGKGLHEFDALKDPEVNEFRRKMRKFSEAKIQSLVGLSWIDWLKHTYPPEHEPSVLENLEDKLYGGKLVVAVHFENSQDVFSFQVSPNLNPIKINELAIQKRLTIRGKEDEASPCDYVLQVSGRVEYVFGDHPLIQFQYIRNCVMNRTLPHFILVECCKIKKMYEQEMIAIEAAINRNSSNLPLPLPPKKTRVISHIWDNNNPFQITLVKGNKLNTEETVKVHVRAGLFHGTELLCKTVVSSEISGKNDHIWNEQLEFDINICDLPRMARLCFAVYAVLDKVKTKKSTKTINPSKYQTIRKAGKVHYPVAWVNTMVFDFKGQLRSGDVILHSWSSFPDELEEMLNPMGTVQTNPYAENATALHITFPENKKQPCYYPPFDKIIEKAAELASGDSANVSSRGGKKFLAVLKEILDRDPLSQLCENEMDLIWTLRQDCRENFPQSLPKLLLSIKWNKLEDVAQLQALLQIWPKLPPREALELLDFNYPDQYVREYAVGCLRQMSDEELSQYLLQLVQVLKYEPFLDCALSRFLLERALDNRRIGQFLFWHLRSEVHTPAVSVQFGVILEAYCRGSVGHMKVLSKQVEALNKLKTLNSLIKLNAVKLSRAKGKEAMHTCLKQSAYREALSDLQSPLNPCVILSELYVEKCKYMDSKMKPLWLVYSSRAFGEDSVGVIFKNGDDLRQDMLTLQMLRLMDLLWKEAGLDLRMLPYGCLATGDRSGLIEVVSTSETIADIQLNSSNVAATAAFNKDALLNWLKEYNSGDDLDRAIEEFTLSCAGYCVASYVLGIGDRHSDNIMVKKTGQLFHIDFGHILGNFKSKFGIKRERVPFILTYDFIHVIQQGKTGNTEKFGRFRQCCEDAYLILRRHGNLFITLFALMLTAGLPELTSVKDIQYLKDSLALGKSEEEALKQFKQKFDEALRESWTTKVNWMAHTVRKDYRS
# T4 sequence (O08908 whole entry partner): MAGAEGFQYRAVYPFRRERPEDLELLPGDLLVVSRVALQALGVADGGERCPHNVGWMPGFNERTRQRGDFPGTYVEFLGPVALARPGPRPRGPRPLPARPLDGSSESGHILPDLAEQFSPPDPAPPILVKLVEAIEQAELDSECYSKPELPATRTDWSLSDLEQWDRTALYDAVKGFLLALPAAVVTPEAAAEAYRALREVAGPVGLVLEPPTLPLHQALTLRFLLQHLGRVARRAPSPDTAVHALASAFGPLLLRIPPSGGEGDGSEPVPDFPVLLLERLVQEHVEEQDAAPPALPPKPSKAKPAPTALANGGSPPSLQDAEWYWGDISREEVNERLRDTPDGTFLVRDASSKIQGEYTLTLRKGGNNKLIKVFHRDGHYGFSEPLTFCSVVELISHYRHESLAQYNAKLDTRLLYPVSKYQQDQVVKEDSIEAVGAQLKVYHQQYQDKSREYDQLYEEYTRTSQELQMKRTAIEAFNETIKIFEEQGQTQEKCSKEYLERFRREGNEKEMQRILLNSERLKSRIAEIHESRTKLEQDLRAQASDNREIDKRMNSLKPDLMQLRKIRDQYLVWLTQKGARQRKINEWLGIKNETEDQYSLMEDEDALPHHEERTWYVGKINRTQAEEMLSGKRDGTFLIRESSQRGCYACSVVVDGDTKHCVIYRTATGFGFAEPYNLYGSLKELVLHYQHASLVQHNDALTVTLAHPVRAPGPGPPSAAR
# Method in brief: as §1
# PI3KC2a(h) = biological target: T5, PI3KC2a(h) (Homo sapiens, UniProt O00443)
# T5 construct: gene PIK3C2A
# Method in brief: as §1
# SAPK3(h) = biological target: T6, SAPK3(h) (Homo sapiens, UniProt P53778)
# T6 construct: gene MAPK12
# T6 sequence (P53778 1-367): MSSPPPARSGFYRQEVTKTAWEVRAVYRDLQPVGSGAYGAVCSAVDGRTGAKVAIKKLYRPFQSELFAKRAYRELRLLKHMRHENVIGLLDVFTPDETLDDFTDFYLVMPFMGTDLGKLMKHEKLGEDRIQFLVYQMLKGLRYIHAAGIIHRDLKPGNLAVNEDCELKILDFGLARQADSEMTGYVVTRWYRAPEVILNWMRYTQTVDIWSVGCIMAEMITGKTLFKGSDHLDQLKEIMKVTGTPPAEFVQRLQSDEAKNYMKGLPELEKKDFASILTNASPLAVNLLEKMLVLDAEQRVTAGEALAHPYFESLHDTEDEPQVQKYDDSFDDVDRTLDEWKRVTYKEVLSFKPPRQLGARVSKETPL
# Method in brief: as §1
# CRIK(h) = biological target: T7, CRIK(h) (Homo sapiens, UniProt O14578)
# T7 construct: gene CIT
# T7 sequence (O14578 whole entry): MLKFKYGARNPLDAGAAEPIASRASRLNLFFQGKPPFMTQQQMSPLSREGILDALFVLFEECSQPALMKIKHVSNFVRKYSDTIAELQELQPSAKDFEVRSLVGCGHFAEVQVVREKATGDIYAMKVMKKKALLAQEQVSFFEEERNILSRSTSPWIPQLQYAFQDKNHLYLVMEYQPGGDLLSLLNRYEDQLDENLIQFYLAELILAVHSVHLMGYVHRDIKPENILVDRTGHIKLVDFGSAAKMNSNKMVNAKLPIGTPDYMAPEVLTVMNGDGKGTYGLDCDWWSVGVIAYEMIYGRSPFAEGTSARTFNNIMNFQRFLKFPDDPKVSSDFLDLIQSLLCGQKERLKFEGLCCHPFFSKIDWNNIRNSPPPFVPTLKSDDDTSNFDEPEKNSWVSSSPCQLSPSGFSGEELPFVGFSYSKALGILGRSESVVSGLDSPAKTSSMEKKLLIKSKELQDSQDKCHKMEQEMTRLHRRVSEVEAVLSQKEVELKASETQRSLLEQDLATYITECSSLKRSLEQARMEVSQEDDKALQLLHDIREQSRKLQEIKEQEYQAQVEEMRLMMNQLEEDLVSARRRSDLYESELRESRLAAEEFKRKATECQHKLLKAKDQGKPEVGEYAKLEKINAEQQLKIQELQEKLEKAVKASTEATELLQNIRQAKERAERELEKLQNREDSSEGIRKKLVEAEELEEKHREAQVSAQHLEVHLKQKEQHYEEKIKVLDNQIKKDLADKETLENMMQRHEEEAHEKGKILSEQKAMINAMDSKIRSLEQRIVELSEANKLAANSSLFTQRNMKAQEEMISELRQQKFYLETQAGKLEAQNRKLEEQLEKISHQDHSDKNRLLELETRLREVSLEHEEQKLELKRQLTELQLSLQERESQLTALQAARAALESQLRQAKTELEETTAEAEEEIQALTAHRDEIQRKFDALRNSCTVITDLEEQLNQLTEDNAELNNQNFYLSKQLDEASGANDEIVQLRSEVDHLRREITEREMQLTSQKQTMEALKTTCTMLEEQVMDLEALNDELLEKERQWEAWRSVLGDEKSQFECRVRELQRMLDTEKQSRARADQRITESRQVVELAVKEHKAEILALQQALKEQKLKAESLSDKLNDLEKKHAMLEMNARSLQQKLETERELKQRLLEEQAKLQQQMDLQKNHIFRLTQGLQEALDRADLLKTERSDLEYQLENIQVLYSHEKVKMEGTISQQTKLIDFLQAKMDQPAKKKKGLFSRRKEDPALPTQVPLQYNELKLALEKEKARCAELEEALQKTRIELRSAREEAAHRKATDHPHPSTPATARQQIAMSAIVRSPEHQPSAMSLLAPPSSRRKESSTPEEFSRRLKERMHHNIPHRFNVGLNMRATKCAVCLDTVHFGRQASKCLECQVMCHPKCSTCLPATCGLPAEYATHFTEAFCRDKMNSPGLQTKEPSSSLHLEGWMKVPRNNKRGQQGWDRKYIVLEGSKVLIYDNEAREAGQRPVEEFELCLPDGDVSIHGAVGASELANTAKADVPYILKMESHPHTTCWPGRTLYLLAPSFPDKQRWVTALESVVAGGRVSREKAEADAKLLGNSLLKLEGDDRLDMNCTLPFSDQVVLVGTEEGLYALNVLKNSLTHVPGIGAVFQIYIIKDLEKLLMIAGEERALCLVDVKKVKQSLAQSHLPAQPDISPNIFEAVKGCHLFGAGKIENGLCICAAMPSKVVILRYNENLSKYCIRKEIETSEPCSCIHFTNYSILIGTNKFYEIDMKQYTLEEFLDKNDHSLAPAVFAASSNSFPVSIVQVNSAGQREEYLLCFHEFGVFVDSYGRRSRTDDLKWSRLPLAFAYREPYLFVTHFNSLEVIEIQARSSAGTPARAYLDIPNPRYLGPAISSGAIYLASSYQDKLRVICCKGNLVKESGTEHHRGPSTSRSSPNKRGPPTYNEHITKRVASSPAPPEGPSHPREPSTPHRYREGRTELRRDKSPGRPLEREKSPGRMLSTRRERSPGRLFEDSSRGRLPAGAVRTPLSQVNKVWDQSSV
# Method in brief: as §1
# CLK3(h) = CLK3(h) (Homo sapiens, UniProt P49761)
# Method in brief: as §1
# [2] = read-out: Residual activity (%) Spautin-1 5aa
# [3] = read-out: Residual activity (%) 5as
# [4] = read-out: Residual activity (%) 5at
# [5] = read-out: Residual activity (%) 5ay
smiles,measurement,setting,value
"Fc1ccc(CNc2ncnc3ccc(F)cc23)cc1 [5aa, 6-Fluoro-N-(4-fluorobenzyl)-4-Quinazolinamine]",remaining activity at 10 µM,DYRK3(h); [2],117%
same,remaining activity at 10 µM,Aurora-C(h); [2],120%
same,remaining activity at 10 µM,PRK2(h); [2],108%
same,remaining activity at 10 µM,CDK14/cyclinY(h); [2],107%
same,remaining activity at 10 µM,[1]; [2],97%
same,remaining activity at 10 µM,PI3KC2a(h); [2],102%
same,remaining activity at 10 µM,SAPK3(h); [2],106%
same,remaining activity at 10 µM,CRIK(h); [2],90%
same,remaining activity at 10 µM,CLK3(h); [2],88%
"Fc1ccc(CCNc2ncnc3ccc(F)cc23)cc1 [5as, 6-Fluoro-N-[2-(4-Fluorophenyl)Ethyl]-4-Quinazolinamine]",remaining activity at 10 µM,DYRK3(h); [3],98%
same,remaining activity at 10 µM,Aurora-C(h); [3],102%
same,remaining activity at 10 µM,PRK2(h); [3],104%
same,remaining activity at 10 µM,CDK14/cyclinY(h); [3],103%
same,remaining activity at 10 µM,[1]; [3],86%
same,remaining activity at 10 µM,PI3KC2a(h); [3],100%
same,remaining activity at 10 µM,SAPK3(h); [3],114%
same,remaining activity at 10 µM,CRIK(h); [3],101%
same,remaining activity at 10 µM,CLK3(h); [3],117%
"Fc1ccc2ncnc(NCCc3ccc(Cl)cc3)c2c1 [5at, N-[2-(4-Chlorophenyl)Ethyl]-6-Fluoro-4-Quinazolinamine]",remaining activity at 10 µM,DYRK3(h); [4],98%
same,remaining activity at 10 µM,Aurora-C(h); [4],118%
same,remaining activity at 10 µM,PRK2(h); [4],96%
same,remaining activity at 10 µM,CDK14/cyclinY(h); [4],109%
same,remaining activity at 10 µM,[1]; [4],87%
same,remaining activity at 10 µM,PI3KC2a(h); [4],105%
same,remaining activity at 10 µM,SAPK3(h); [4],87%
same,remaining activity at 10 µM,CRIK(h); [4],89%
same,remaining activity at 10 µM,CLK3(h); [4],116%
"COc1ccc2ncnc(Nc3cccc(F)c3)c2c1 [5ay, N-(3-Fluorophenyl)-6-Methoxy-4-Quinazolinamine]",remaining activity at 10 µM,DYRK3(h); [5],57%
same,remaining activity at 10 µM,Aurora-C(h); [5],106%
same,remaining activity at 10 µM,PRK2(h); [5],95%
same,remaining activity at 10 µM,CDK14/cyclinY(h); [5],93%
same,remaining activity at 10 µM,[1]; [5],89%
same,remaining activity at 10 µM,PI3KC2a(h); [5],106%
same,remaining activity at 10 µM,SAPK3(h); [5],101%
same,remaining activity at 10 µM,CRIK(h); [5],76%
same,remaining activity at 10 µM,CLK3(h); [5],114%
